# US6355799B1, “Substituted benzene compounds, process for their preparation, and herbicidal and defoliant compositions containing them” (ISK Americas Incorporated, priority 1997, dated 2002)
# Legend:
# Assay type in all cases: in vivo
# [1] = system: redroot pigweed (Amaranthus retroflexus, AMARE); test: Pre-emerge test, greenhouse herbicide activity screening; settings: pre-emerge, 14 days after application, rating scale 0-100
# Summary of the method: (§1)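 Compounds in acetone were track-sprayed at 187 l/ha, 15–1000 g ai/ha, onto sandy loam pots. Pre-emerge seeds were sown one day before spraying, with surface watering afterwards. Post-emerge plants were at the 2–3 leaf stage and sprayed with 0.25% v/v non-ionic surfactant. Injury was rated 0–100 at 14 days.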
# [2] = system: barnyardgrass (Echinochloa crus-galli, ECHCG); test: as above; settings: pre-emerge, 14 days after application, rating scale 0-100
# Summary of the method: as §1
# [3] = system: common ragweed (Ambrosia artemisizfolia L., AMBEL); test: as above; settings: pre-emerge, 14 days after application, rating scale 0-100
# Summary of the method: as §1
# [4] = system: green foxtail (Setaria viridis, SETVI); test: as above; settings: pre-emerge, 14 days after application, rating scale 0-100
# Summary of the method: as §1
# [5] = system: ivyleaf morningglory (Ipomoea hederacea, IPOHE); test: as above; settings: pre-emerge, 14 days after application, rating scale 0-100
# Summary of the method: as §1
# [6] = system: johnsongrass (Sorghum halepense, SORHA); test: as above; settings: pre-emerge, 14 days after application, rating scale 0-100
# Summary of the method: as §1
# [7] = system: lambsquarters (Chenopodium album, CHEAL); test: as above; settings: pre-emerge, 14 days after application, rating scale 0-100
# Summary of the method: as §1
# [8] = system: large crabgrass (Digitaria sanguinalis, DIGSA); test: as above; settings: pre-emerge, 14 days after application, rating scale 0-100
# Summary of the method: as §1
# [9] = system: sicklepod (Cassia obtusifolia, CASOB); test: as above; settings: pre-emerge, 14 days after application, rating scale 0-100
# Summary of the method: as §1
# [10] = system: velvetleaf (Abutilon theophrasti, ABUTH); test: as above; settings: pre-emerge, 14 days after application, rating scale 0-100
# Summary of the method: as §1
# [11] = system: field corn (Zea mays L., var. Dekalb 535, CORN); test: Pre-emerge test, crop safety; settings: pre-emerge, 14 days after application, rating scale 0-100
# Summary of the method: (§2)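 Herbicidal damage is scored 0 (none) to 100 (complete plant death) two weeks after a simulated field spray. Rates span 15–1000 g ai/ha, delivered in acetone at 187 l/ha. For post-emergence treatments, plants have 2–3 leaves and the spray carries 0.25% v/v non-ionic surfactant.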
# [12] = system: upland rice (Oryza sp., var. Tebonnet, RICE); test: Pre-emerge test, crop safety; settings: pre-emerge, 14 days after application, rating scale 0-100
# Summary of the method: as §2
# [13] = system: barnyardgrass (Echinochloa crus-galli, ECHCG); test: Post-emerge test, greenhouse herbicide activity screening; settings: post-emerge, 14 days after application, rating scale 0-100
# Summary of the method: (§3)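 Compounds in acetone were track-sprayed at 15-1000 g ai/ha (187 l/ha) on sandy loam pots: pre-emerge one day after seeding, post-emerge at 2-3 leaf stage with 0.25% v/v non-ionic surfactant. Phytotoxicity was rated 14 days later on a 0 (no damage) to 100 (complete death) scale.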
# [14] = system: common ragweed (Ambrosia artemisizfolia L., AMBEL); test: as above; settings: post-emerge, 14 days after application, rating scale 0-100
# Summary of the method: as §3
# [15] = system: green foxtail (Setaria viridis, SETVI); test: as above; settings: post-emerge, 14 days after application, rating scale 0-100
# Summary of the method: as §3
# [16] = system: ivyleaf morningglory (Ipomoea hederacea, IPOHE); test: as above; settings: post-emerge, 14 days after application, rating scale 0-100
# Summary of the method: as §3
# [17] = system: lambsquarters (Chenopodium album, CHEAL); test: as above; settings: post-emerge, 14 days after application, rating scale 0-100
# Summary of the method: as §3
# [18] = system: large crabgrass (Digitaria sanguinalis, DIGSA); test: as above; settings: post-emerge, 14 days after application, rating scale 0-100
# Summary of the method: as §3
# [19] = system: redroot pigweed (Amaranthus retroflexus, AMARE); test: as above; settings: post-emerge, 14 days after application
# Summary of the method: as §3
# [20] = system: sicklepod (Cassia obtusifolia, CASOB); test: as above; settings: post-emerge, 14 days after application, rating scale 0-100
# Summary of the method: as §3
# [21] = system: velvetleaf (Abutilon theophrasti, ABUTH); test: as above; settings: post-emerge, 14 days after application, rating scale 0-100
# Summary of the method: as §3
# [22] = system: field corn (Zea mays L., var. Dekalb 535, CORN); test: Post-emerge test, crop safety; settings: post-emerge, 14 days after application, rating scale 0-100
# Summary of the method: as §1
# [23] = system: upland rice (Oryza sp., var. Tebonnet, RICE); test: Post-emerge test, crop safety; settings: post-emerge, 14 days after application, rating scale 0-100
# Summary of the method: as §1
compound,measurement,setting,value
CCOC(=O)C(Cl)Cc1c(OCC)c(Cl)cc(F)c1-n1c(=O)cc(C(F)(F)F)n(C)c1=O (stereo not shown) [14-63],phytotoxicity rating AMARE,[1]; 63 g ai/ha,99
same,phytotoxicity rating AMARE,[1]; 250 g ai/ha,100
same,phytotoxicity rating ECHCG,[2]; 63 g ai/ha,0
same,phytotoxicity rating ECHCG,[2]; 250 g ai/ha,50
same,phytotoxicity rating AMBEL,[3]; 63 g ai/ha,0
same,phytotoxicity rating AMBEL,[3]; 250 g ai/ha,60
same,phytotoxicity rating SETVI,[4]; 63 g ai/ha,30
same,phytotoxicity rating SETVI,[4]; 250 g ai/ha,99
same,phytotoxicity rating IPOHE,[5]; 63 g ai/ha,0
same,phytotoxicity rating IPOHE,[5]; 250 g ai/ha,0
same,phytotoxicity rating SORHA,[6]; 63 g ai/ha,0
same,phytotoxicity rating SORHA,[6]; 250 g ai/ha,20
same,phytotoxicity rating CHEAL,[7]; 63 g ai/ha,80
same,phytotoxicity rating CHEAL,[7]; 250 g ai/ha,99
same,phytotoxicity rating DIGSA,[8]; 63 g ai/ha,70
same,phytotoxicity rating DIGSA,[8]; 250 g ai/ha,100
same,phytotoxicity rating CASOB,[9]; 63 g ai/ha,0
same,phytotoxicity rating CASOB,[9]; 250 g ai/ha,50
same,phytotoxicity rating ABUTH,[10]; 63 g ai/ha,70
same,phytotoxicity rating ABUTH,[10]; 250 g ai/ha,100
same,phytotoxicity rating CORN,[11]; 63 g ai/ha,0
same,phytotoxicity rating CORN,[11]; 250 g ai/ha,0
same,phytotoxicity rating RICE,[12]; 63 g ai/ha,0
same,phytotoxicity rating RICE,[12]; 250 g ai/ha,0
same,Post-emerge Herbicidal Activity ECHCG (phytotoxicity rating),[13]; 63 g ai/ha,100
same,Post-emerge Herbicidal Activity ECHCG (phytotoxicity rating),[13]; 250 g ai/ha,99
same,Post-emerge Herbicidal Activity AMBEL (phytotoxicity rating),[14]; 63 g ai/ha,20
same,Post-emerge Herbicidal Activity AMBEL (phytotoxicity rating),[14]; 250 g ai/ha,50
same,Post-emerge Herbicidal Activity SETVI (phytotoxicity rating),[15]; 63 g ai/ha,50
same,Post-emerge Herbicidal Activity SETVI (phytotoxicity rating),[15]; 250 g ai/ha,70
same,Post-emerge Herbicidal Activity IPOHE (phytotoxicity rating),[16]; 63 g ai/ha,70
same,Post-emerge Herbicidal Activity IPOHE (phytotoxicity rating),[16]; 250 g ai/ha,70
same,Post-emerge Herbicidal Activity CHEAL (phytotoxicity rating),[17]; 63 g ai/ha,80
same,Post-emerge Herbicidal Activity CHEAL (phytotoxicity rating),[17]; 250 g ai/ha,100
same,Post-emerge Herbicidal Activity DIGSA (phytotoxicity rating),[18]; 63 g ai/ha,40
same,Post-emerge Herbicidal Activity DIGSA (phytotoxicity rating),[18]; 250 g ai/ha,90
same,Post-emerge Herbicidal Activity AMARE (phytotoxicity rating),"[19]; 63 g ai/ha, rating scale 0-100 (0 no damage, 100 complete death)",95
same,Post-emerge Herbicidal Activity AMARE (phytotoxicity rating),"[19]; 250 g ai/ha, rating scale 0-100",100
same,Post-emerge Herbicidal Activity CASOB (phytotoxicity rating),[20]; 63 g ai/ha,95
same,Post-emerge Herbicidal Activity CASOB (phytotoxicity rating),[20]; 250 g ai/ha,100
same,Post-emerge Herbicidal Activity ABUTH (phytotoxicity rating),[21]; 63 g ai/ha,90
same,Post-emerge Herbicidal Activity ABUTH (phytotoxicity rating),[21]; 250 g ai/ha,100
same,Post-emerge Herbicidal Activity CORN (crop damage rating),[22]; 63 g ai/ha,35
same,Post-emerge Herbicidal Activity CORN (crop damage rating),[22]; 250 g ai/ha,80
same,Post-emerge Herbicidal Activity RICE (crop damage rating),[23]; 63 g ai/ha,5
same,Post-emerge Herbicidal Activity RICE (crop damage rating),[23]; 250 g ai/ha,15
